Reference: ChEMBL document CHEMBL1150271, “Corymbones A and B, phloroglucinols with thyrotropin releasing hormone receptor 2 binding affinity from the flowers of Corymbia peltata” (J Nat Prod, 2008)
Activity calls are given as the source filed them. The calls are words filed in the database; no cut-off is given here.

How the values were obtained:
[1] = target: T1, Thyrotropin-releasing hormone receptor 2 (Rattus norvegicus, UniProt A6IZR3); experiment: Displacement of [3H]3-methylhistidyl-TRH from rat recombinant TRH2 receptor expressed in […] cells; assay type: cell-based
T1 sequence (A6IZR3 whole entry): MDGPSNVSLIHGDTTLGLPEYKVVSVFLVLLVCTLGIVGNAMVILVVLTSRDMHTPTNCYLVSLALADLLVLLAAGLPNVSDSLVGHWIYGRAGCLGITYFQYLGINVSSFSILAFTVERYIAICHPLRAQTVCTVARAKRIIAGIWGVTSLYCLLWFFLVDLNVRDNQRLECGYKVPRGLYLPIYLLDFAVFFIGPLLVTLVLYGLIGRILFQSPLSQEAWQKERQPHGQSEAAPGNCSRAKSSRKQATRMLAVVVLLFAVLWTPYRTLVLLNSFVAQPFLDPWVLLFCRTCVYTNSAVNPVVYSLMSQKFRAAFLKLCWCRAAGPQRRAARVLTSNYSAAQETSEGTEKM

[2] = target: T2, Thyrotropin-releasing hormone receptor 2 (Rattus norvegicus) (UniProt A6IZR3); experiment: Displacement of [3H]3-methylhistidyl-TRH from rat recombinant TRH2 receptor expressed in […] cells up to 1 mM; assay type: cell-based
T2 sequence (whole entry): T1 sequence (A6IZR3 whole entry)

Structure (SMILES)	IC50 [1]	Activity [2]
Cc1c(O)c(C(=O)CCc2ccccc2)c(O)c(C(CCc2ccccc2)C2=C(O)C(C)(C)C(=O)C(C)(C)C2=O)c1O (centres undefined) [CORYMBONE A]	23 µM	–
Cc1c(O)cc(O)c(C(=O)CCc2ccccc2)c1O	–	inactive
Cc1c(O)c(C(=O)CCc2ccccc2)c(O)c(C(CC(C)C)C2=C(O)C(C)(C)C(=O)C(C)(C)C2=O)c1O (centres undefined) [CORYMBONE B]	19 µM	–
NC(=O)[C@@H]1CCCN1C(=O)[C@H](Cc1cnc[nH]1)NC(=O)[C@@H]1CCC(=O)N1 [PROTIRELIN]	23 µM	–
